Reference: patent US20210161857A1, “COMPOSITION AND METHOD FOR SUPPRESSING INCREASE IN BLOOD GLUCOSE LEVEL” (SUNTORY HOLDINGS LIMITED, priority 2018, published 2021)

Key:
[1] = Glucose tolerance test after single intake of test substance; type: in vivo, Mice (C57BL/6J); conditions: single oral intake 30 or 60 mg/kg, 30 min before oral glucose 1 g/kg; vs control group, at any time
Text: Evaluation of Action of Isoxanthohumol to Suppress an Increase in Blood Glucose Level by Single Intake
The effect of single intake of isoxanthohumol on the increase in blood glucose level after glucose intake was examined by the following procedure.
Xanthohumol and isoxanthohumol were the standard samples (purity of 95% or higher) obtained in Preparation Example 1. The “Dosage” in the table, indicates the dosage (mg) of the test substance per kg body weight. A dosing solution containing a mixture of the test substance and a solvent was used to administer the test substance. The solvent was a 0.5 wt % sodium carboxymethylcellulose (CMC) aqueous solution. The volume of the dosing solution was 10 mL/kg A 50 wt % glucose aqueous solution was used for glucose intake.
(§1) Mice (C57BL/6J, male, 7 weeks of age, CLEA Japan, Inc.) were purchased, and they were quarantined and acclimatized for one week. […] The selected animals were divided into groups (n=9 in each group) in the group structure shown in Table, 1 by the stratified continuous randomization method based on body weight at the end of the acclimatization period.
After grouping, each group was oral administered with the test substance as described in Table 1. […] Soon after blood drawing, the blood glucose level was measured using Glutest Neo Sensor (Sanwa Kagaku Kenkyusho Co., Ltd.). […]

[2] = Glucose tolerance test after continuous intake (three weeks) in high-fat diet mouse model; type: in vivo, Mice (C57BL/6J); conditions: high fat diet mice, oral glucose 1 g/kg, vs high fat diet group
Text: Evaluation of Action of Isoxanthohumol to Suppress an Increase in Blood Glucose Level by Continuous Intake
The effect of continuous intake of isoxanthohumol on the increase in blood glucose level after glucose intake was studied by the following procedure using a high-fat diet mouse model.
In the table, “Regular diet” is control diet “D12450J” (Research Diets), and “60 kcal % High-fat diet” is very high-fat diet “D12492” (Research Diets); Xanthohumol and isoxanthohumol were the standard samples (purity of 95% or higher) obtained in Preparation Example 1. The “Dosage” in the table indicates the dosage (mg) of the test substance per day per kg body weight. As in Reference Example 1, a dosing solution containing a mixture of the test substance and a solvent (a 0.5 wt % CMC aqueous solution) was used to administer the test substance. The volume of the dosing solution was 10 ml/kg. The amount of the test substance and the volume of the solution were calculated based on the latest body weight on the administration day of the test substance. A 50 wt % glucose aqueous solution was used for glucose intake.
as §1, with “japan,” for “Japan,”, “(n=8” for “(n=9”, “Table 2” for “Table, 1”, “period. They were fed with free access to specific basic feed and water. The test substance was orally administered once a day for three weeks.” for “period.”
After fasting for six hours on the last administration day of the test substance, each group was subjected to oral glucose intake to an amount of 1 g per 1 kg body weight, and blood was drawn from the tail vein over time. Soon after blood drawing, the blood glucose level was measured using Glutest Neo Sensor (Sanwa Kagaku Kenkyusho Co., Ltd.).
Statistical processing was performed using Microsoft Office Excel 2003. A significant difference, was tested between the regular diet group and the high fat diet group by Student's t-test (significant level: 1% (p<0.01)). A significant difference was tested between the high fat diet group and each group excluding the regular diet group by Dunnett's multiple comparison test (significant level: 5% (p<0.05)).

[3] = high temperature of 100° C.; cited from earlier work
[4] = high-fat diet mouse model, cited from earlier work
[5] = 10 mg/L mixed in drinking water, long-term breeding, high-fat diet mouse model; cited from earlier work
3T3-L1 adipose cells = conditions: cited from earlier work
[6] = 30 mg/kg/day orally once a day for three weeks
[7] = 60 mg/kg/day orally once a day for three weeks

Structure (SMILES): COc1cc(O)c(CC=C(C)C)c2c1C(=O)CC(c1ccc(O)cc1)O2 (centres unmarked) [isoxanthohumol]
- action to suppress an increase in blood glucose level [1]: did not show a significant action to suppress an increase in blood glucose level
- action to suppress an increase in blood glucose level [2, 6]: tendency for a suppressed increase in blood glucose level
- action to suppress an increase in blood glucose level [2, 7]: significant action to suppress an increase in blood glucose level
- thermal stability [3]: stable

Structure (SMILES): COc1cc(O)c(CC=C(C)C)c(O)c1C(=O)/C=C/c1ccc(O)cc1 [xanthohumol]
- action to suppress an increase in blood glucose level [1]: did not show a significant action to suppress an increase in blood glucose level
- action to suppress an increase in blood glucose level [2, 6]: No significant action to suppress an increase in blood glucose level
- action to suppress an increase in blood glucose level [2, 7]: No significant action to suppress an increase in blood glucose level
- fasting blood glucose level ([4]; continuous administration 60 mg/kg/day): decreases the fasting blood glucose level
- fasting blood insulin level ([4]; continuous administration 30 or 60 mg/kg/day): decreases the fasting blood insulin level
- blood glucose level [5]: decrease in blood glucose level
- secretion of adiponectin (3T3-L1 adipose cells): promote secretion of adiponectin
